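Compound exposure: 48 hours, 5 concentrations, 96-well plates. TGI: concentration producing complete growth inhibition.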
Experiments:
Test in all cases: NCI-60 cell line screen, 48 h
[1] = tested on: 786-0 renal
[2] = tested on: A498 renal
[3] = tested on: A549 NSCLC
[4] = tested on: ACHN renal
[5] = tested on: CAKI-1 renal
[6] = tested on: CCRF-CEM leukemia
[7] = tested on: COLO 205 colon
[8] = tested on: DU-145 prostate
[9] = tested on: EKVX NSCLC
[10] = tested on: HCC-2998 colon
[11] = tested on: HCT-116 colon
[12] = tested on: HCT-15 colon
[13] = tested on: HL-60(TB) leukemia
[14] = tested on: HOP-62 NSCLC
[15] = tested on: HOP-92 NSCLC
[16] = tested on: HS 578T breast
[17] = tested on: HT29 colon
[18] = tested on: K-562 leukemia
[19] = tested on: KM12 colon
[20] = tested on: M14 melanoma
[21] = tested on: MALME-3M melanoma
[22] = tested on: MCF7 breast
[23] = tested on: MDA-MB-231 breast
[24] = tested on: MDA-MB-435
[25] = tested on: MDA-N
[26] = tested on: NCI-H226 lung
[27] = tested on: NCI-H23 lung
[28] = tested on: NCI-H460 lung
[29] = tested on: NCI/ADR-RES ovarian
[30] = tested on: OVCAR-3 ovarian
[31] = tested on: OVCAR-4 ovarian
[32] = tested on: OVCAR-5 ovarian
[33] = tested on: PC-3 prostate
[34] = tested on: RPMI-8226 leukemia
[35] = tested on: RXF 393 renal
[36] = tested on: SF-268 CNS
[37] = tested on: SF-295 CNS
[38] = tested on: SF-539 CNS
[39] = tested on: SK-MEL-28 melanoma
[40] = tested on: SK-MEL-5 melanoma
[41] = tested on: SK-OV-3 ovarian
[42] = tested on: SN12C renal
[43] = tested on: SNB-19 CNS
[44] = tested on: SR leukemia
[45] = tested on: SW-620 colon
[46] = tested on: T-47D breast
[47] = tested on: TK-10 renal
[48] = tested on: U251 CNS
[49] = tested on: UACC-257 melanoma
[50] = tested on: UACC-62 melanoma
[51] = tested on: UO-31 renal

For `O=C(C=P(c1ccccc1)(c1ccccc1)c1ccccc1)c1ccc(-c2ccc(F)cc2F)cc1`, which TGI [1] is on record?
Its TGI is 13.7 µM.

What about the TGI [2] of the same compound?
The TGI was 7.41 µM.

What about the TGI [3] of the same compound?
Its TGI is 11.4 µM.

What about the TGI [4] of the same compound?
Its TGI is 6.76 µM.

And the TGI [5]?
The TGI was 5.55 µM.

What about the TGI [6] of the same compound?
The TGI was 7.06 µM.

And the TGI [7]?
Its TGI is 3.14 µM.

What about the TGI [8] of the same compound?
Its TGI is 16.2 µM.

And the TGI [9]?
Its TGI is 11 µM.

And the TGI [10]?
The TGI was 4.12 µM.

What about the TGI [11] of the same compound?
The TGI was 8.81 µM.

And the TGI [12]?
Its TGI is 7.81 µM.

What about the TGI [13] of the same compound?
Its TGI is 5.13 µM.

What about the TGI [14] of the same compound?
Its TGI is 15.5 µM.

And the TGI [15]?
Its TGI is 7.24 µM.

And the TGI [16]?
Its TGI is 28.3 µM.

And the TGI [17]?
The TGI was 3.94 µM.

What about the TGI [18] of the same compound?
Its TGI is 5.31 µM.

And the TGI [19]?
The TGI was 13.8 µM.

And the TGI [20]?
The TGI was 5.76 µM.

And the TGI [21]?
The TGI was 7.17 µM.

And the TGI [22]?
Its TGI is 7.95 µM.

And the TGI [23]?
Its TGI is 4.92 µM.

What about the TGI [24] of the same compound?
The TGI was 5.79 µM.

What about the TGI [25] of the same compound?
Its TGI is 8.8 µM.

And the TGI [26]?
The TGI was 7.16 µM.

What about the TGI [27] of the same compound?
The TGI was 12.2 µM.

And the TGI [28]?
The TGI was 4.09 µM.

What about the TGI [29] of the same compound?
Its TGI is 13.2 µM.

What about the TGI [30] of the same compound?
The TGI was 5.19 µM.

What about the TGI [31] of the same compound?
Its TGI is 9.96 µM.

What about the TGI [32] of the same compound?
Its TGI is 9.29 µM.

And the TGI [33]?
The TGI was 17.5 µM.

What about the TGI [34] of the same compound?
Its TGI is 4.43 µM.

And the TGI [35]?
Its TGI is 7.29 µM.

What about the TGI [36] of the same compound?
Its TGI is 15.5 µM.

And the TGI [37]?
Its TGI is 9.87 µM.

What about the TGI [38] of the same compound?
The TGI was 10.8 µM.

What about the TGI [39] of the same compound?
The TGI was 8.14 µM.

What about the TGI [40] of the same compound?
Its TGI is 3.55 µM.

And the TGI [41]?
The TGI was 8.63 µM.

And the TGI [42]?
Its TGI is 5.31 µM.

What about the TGI [43] of the same compound?
Its TGI is 20.6 µM.

What about the TGI [44] of the same compound?
The TGI was 7.55 µM.

What about the TGI [45] of the same compound?
The TGI was 14.9 µM.

And the TGI [46]?
The TGI was 7.58 µM.

And the TGI [47]?
Its TGI is 7.2 µM.

What about the TGI [48] of the same compound?
Its TGI is 13.9 µM.

And the TGI [49]?
The TGI was 8.57 µM.

What about the TGI [50] of the same compound?
The TGI was 4.25 µM.

And the TGI [51]?
Its TGI is 4.08 µM.

From PubChem BioAssay (NCI)
